From ChEMBL document CHEMBL5137046, “Discovery of novel 2,3-dihydro-1H-inden-1-ones as dual PDE4/AChE inhibitors with more potency against neuroinflammation for the treatment of Alzheimer's disease” (Eur J Med Chem, 2022)
The source made the active and inactive calls. No cut-off for these calls is given here.

Legend:
Acetylcholinesterase = Acetylcholinesterase (Electrophorus electricus, UniProt O42275); experiment: Inhibition of electric eel AChE using acetylthiocholine iodide as substrate preincubated with enzyme for 20 mins followed by substrate addition and measured after 10 mins by Ellman's method
[1] = target: T1, 3',5'-cyclic-AMP phosphodiesterase 4D (Homo sapiens, UniProt Q08499); experiment: Inhibition of PDE4D7 (unknown origin)
[2] = target: Acetylcholinesterase (Electrophorus electricus) (UniProt O42275); experiment: Inhibition of electric eel AChE using acetylthiocholine iodide as substrate at 10 uM preincubated with enzyme for 20 mins followed by substrate addition and measured after 10 mins by Ellman's method; details: time 30.0 min
[3] = target: T1, 3',5'-cyclic-AMP phosphodiesterase 4D; experiment: Inhibition of PDE4D7 (unknown origin) at 10 uM
PC-12 [4] = experiment: Neuroprotective activity against rat PC-12 cells assessed as inhibition of Abeta(25-35)-induced cytotoxicity by measuring increase in cell viability at 10 uM incubated for 24 hrs by MTT assay; assay type: functional, cell-based
[5] = target: Acetylcholinesterase (Electrophorus electricus) (UniProt O42275); experiment: Inhibition of electric eel AChE using acetylthiocholine iodide as substrate at 1 uM preincubated with enzyme for 20 mins followed by substrate addition and measured after 10 mins by Ellman's method; details: time 30.0 min
PC-12 [6] = experiment: Neuroprotective activity against rat PC-12 cells assessed as inhibition of Abeta(25-35)-induced cytotoxicity by measuring increase in cell viability at 10 to 20 uM incubated for 24 hrs by MTT assay; assay type: functional, cell-based; details: dose 10-20 µM
[7] = target: High affinity cAMP-specific and IBMX-insensitive 3',5'-cyclic phosphodiesterase 8A (Homo sapiens, UniProt O60658); experiment: Inhibition of PDE8A1 (unknown origin)
[8] = target: High affinity cGMP-specific 3',5'-cyclic phosphodiesterase 9A (Homo sapiens, UniProt O76083); experiment: Inhibition of PDE9A2 (unknown origin)
BV-2 [9] = experiment: Anti-neuroinflammatory activity against LPS-stimulated mouse BV-2 cells assessed as reduction in TNF-alpha production pretreated for 1 hr with compound followed by LPS treatment for 24 hrs by ELISA; assay type: functional, cell-based; details: dose 5-20 µM, time 25.0 hrs, DDE = dose-dependent effect
[10] = Neurotoxicity against rat PC-12 cells assessed as reduction in cell viability up to 20 uM incubated for 24 hrs by MTT assay; assay type: toxicity, cell-based; details: pc-12, 24 h
Mus musculus [11] = experiment: In vivo inhibition of AChE in hippocampus of aggregated Abeta(25-35)-induced Alzheimer's disease C57BL/6 mouse model at 2 mg/kg, iv measured after 2 hrs by Ellman's method; assay type: functional, organism-based
[12] = target: cGMP-dependent 3',5'-cyclic phosphodiesterase (Homo sapiens, UniProt O00408); experiment: Inhibition of PDE2A (unknown origin)
[13] = target: High affinity 3',5'-cyclic-AMP phosphodiesterase 7A (Homo sapiens, UniProt Q13946); experiment: Inhibition of PDE7A (unknown origin)
[14] = Inhibition of […] (unknown origin); set-up: species or system Homo sapiens
[15] = target: Dual specificity calcium/calmodulin-dependent 3',5'-cyclic nucleotide phosphodiesterase 1A (Homo sapiens, UniProt P54750); experiment: Inhibition of PDE1A (unknown origin)
Cholinesterase = Cholinesterase (Equus caballus, UniProt P81908); experiment: Inhibition of horse serum BuChE using butyrylthiocholine iodide as substrate preincubated with enzyme for 20 mins followed by substrate addition and measured after 10 mins by Ellman's method; assay type: cell-free
BV-2 [16] = experiment: Cytotoxicity against mouse BV-2 cells assessed as reduction in cell viability at 20 uM by MTT assay; assay type: toxicity, cell-based; details: bv-2, 20 µM
[17] = target: cGMP-specific 3',5'-cyclic phosphodiesterase (Homo sapiens, UniProt O76074); experiment: Inhibition of PDE5A (unknown origin)
BV-2 [18] = experiment: Anti-neuroinflammatory activity against LPS-stimulated mouse BV-2 cells assessed as reduction in TNF-alpha production at 20 uM pretreated for 1 hr with compound followed by LPS treatment for 24 hrs by ELISA; assay type: functional, cell-based; details: time 25.0 hrs
Mus musculus [19] = experiment: Anti-neuroinflammatory activity against aggregated Abeta(25-35)-induced Alzheimer's disease C57BL/6 mouse model assessed as inhibition of TNF-alpha production in hippocampus at 2 mg/kg, iv measured after 2 hrs by ELISA; assay type: functional, organism-based
[20] = target: cGMP-inhibited 3',5'-cyclic phosphodiesterase 3B (Homo sapiens, UniProt Q13370); experiment: Inhibition of PDE3B (unknown origin)
[21] = target: Acetylcholinesterase (Electrophorus electricus) (UniProt O42275); experiment: Potency index, ratio of donepezil IC50 to test compound IC50 for inhibition of electric eel AChE using acetylthiocholine iodide as substrate preincubated with enzyme for 20 mins followed by substrate addition and measured after 10 mins by Ellman's method; details: time 30.0 min
Mus musculus [22] = experiment: Anti-neuroinflammatory activity against aggregated Abeta(25-35)-induced Alzheimer's disease C57BL/6 mouse model assessed as inhibition of TNF-alpha production in hippocampus at 1 mg/kg, iv measured after 2 hrs in presence of 1 mg/kg, iv rolipram by ELISA; assay type: functional, organism-based

Sequence of Acetylcholinesterase (Electrophorus electricus) (O42275 24-633 limits assumed): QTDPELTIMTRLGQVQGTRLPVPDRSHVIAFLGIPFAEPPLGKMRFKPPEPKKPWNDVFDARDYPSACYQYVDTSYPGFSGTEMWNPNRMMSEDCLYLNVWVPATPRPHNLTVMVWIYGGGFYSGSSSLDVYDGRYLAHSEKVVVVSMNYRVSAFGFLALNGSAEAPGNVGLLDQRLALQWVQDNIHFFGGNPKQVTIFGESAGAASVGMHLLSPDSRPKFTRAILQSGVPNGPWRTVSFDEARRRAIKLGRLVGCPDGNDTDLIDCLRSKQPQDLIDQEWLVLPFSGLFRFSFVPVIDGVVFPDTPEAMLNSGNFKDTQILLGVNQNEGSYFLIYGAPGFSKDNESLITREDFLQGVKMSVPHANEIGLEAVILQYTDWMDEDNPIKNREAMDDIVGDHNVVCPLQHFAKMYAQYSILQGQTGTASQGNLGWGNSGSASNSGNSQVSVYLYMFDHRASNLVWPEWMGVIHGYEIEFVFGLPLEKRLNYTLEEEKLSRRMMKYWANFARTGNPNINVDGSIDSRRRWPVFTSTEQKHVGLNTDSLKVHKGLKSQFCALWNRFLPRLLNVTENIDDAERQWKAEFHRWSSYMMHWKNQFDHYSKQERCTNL
Sequence of Acetylcholinesterase (O42275 whole entry): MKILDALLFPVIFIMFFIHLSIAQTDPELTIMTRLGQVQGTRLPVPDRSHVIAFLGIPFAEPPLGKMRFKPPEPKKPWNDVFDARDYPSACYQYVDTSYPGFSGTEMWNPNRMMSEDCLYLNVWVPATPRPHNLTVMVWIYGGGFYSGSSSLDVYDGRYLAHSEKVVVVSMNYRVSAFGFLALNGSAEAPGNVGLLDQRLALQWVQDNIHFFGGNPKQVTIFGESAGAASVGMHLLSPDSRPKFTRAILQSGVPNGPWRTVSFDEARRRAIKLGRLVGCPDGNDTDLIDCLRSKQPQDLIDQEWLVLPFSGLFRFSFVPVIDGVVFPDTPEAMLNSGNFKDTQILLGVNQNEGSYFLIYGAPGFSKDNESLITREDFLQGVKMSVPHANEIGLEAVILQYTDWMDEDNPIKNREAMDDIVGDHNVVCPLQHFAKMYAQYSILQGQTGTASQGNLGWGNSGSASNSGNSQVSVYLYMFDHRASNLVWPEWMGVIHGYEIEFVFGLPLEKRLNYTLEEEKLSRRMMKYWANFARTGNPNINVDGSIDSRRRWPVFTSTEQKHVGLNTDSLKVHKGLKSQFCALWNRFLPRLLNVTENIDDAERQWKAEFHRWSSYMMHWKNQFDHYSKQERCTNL
T1 sequence (Q08499 whole entry): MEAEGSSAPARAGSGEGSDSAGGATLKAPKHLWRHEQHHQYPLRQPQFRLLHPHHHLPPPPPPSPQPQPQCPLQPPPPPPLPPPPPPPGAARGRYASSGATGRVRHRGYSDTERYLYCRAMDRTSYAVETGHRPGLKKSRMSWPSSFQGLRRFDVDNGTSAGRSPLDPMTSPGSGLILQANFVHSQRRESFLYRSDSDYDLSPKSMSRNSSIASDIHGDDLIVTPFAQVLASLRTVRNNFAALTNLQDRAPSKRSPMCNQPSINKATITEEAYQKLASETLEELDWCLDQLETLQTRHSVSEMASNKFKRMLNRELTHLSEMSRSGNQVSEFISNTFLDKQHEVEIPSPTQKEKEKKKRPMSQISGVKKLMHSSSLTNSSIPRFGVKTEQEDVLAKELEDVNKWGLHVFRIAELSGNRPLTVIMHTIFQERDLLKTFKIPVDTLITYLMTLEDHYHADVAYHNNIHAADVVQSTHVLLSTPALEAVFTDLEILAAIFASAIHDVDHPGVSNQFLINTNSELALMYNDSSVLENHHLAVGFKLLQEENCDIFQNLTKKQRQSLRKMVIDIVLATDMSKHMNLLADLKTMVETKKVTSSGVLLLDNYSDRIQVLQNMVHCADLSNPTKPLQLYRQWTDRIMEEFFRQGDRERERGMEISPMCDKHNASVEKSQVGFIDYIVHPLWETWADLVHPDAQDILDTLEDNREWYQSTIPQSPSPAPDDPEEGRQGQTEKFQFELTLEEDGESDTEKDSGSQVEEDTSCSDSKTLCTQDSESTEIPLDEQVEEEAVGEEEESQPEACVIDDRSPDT
Sequence of Cholinesterase (P81908 whole entry): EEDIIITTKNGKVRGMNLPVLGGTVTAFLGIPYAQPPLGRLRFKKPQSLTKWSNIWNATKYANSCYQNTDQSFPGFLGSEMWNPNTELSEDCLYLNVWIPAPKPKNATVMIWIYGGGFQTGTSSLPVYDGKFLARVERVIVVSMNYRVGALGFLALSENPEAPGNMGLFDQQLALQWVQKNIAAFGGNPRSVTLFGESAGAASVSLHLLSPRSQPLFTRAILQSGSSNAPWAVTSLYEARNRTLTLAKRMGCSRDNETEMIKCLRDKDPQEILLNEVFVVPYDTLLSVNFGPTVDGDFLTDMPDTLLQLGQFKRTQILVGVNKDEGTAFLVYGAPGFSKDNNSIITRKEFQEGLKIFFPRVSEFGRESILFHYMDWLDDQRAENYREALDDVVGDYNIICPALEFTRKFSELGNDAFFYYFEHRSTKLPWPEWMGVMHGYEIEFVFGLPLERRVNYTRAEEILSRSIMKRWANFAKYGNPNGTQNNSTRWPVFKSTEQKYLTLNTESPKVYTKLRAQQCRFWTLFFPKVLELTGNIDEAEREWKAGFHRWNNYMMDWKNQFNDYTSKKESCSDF
Sequence of High affinity 3',5'-cyclic-AMP phosphodiesterase 7A (Q13946 whole entry): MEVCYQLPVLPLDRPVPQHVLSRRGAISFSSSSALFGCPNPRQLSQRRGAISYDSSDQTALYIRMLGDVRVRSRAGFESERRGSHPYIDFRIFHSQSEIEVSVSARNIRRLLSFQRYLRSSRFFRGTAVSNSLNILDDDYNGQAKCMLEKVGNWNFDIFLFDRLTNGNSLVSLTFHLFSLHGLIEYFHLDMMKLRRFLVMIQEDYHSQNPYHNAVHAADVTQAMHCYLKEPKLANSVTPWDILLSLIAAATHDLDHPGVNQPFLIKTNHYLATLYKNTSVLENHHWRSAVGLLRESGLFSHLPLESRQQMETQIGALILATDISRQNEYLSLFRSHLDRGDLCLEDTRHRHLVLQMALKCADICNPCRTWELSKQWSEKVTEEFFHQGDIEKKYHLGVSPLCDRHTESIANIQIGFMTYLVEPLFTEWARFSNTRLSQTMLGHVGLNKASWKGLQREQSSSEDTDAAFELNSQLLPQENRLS
Sequence of cGMP-dependent 3',5'-cyclic phosphodiesterase (O00408 whole entry): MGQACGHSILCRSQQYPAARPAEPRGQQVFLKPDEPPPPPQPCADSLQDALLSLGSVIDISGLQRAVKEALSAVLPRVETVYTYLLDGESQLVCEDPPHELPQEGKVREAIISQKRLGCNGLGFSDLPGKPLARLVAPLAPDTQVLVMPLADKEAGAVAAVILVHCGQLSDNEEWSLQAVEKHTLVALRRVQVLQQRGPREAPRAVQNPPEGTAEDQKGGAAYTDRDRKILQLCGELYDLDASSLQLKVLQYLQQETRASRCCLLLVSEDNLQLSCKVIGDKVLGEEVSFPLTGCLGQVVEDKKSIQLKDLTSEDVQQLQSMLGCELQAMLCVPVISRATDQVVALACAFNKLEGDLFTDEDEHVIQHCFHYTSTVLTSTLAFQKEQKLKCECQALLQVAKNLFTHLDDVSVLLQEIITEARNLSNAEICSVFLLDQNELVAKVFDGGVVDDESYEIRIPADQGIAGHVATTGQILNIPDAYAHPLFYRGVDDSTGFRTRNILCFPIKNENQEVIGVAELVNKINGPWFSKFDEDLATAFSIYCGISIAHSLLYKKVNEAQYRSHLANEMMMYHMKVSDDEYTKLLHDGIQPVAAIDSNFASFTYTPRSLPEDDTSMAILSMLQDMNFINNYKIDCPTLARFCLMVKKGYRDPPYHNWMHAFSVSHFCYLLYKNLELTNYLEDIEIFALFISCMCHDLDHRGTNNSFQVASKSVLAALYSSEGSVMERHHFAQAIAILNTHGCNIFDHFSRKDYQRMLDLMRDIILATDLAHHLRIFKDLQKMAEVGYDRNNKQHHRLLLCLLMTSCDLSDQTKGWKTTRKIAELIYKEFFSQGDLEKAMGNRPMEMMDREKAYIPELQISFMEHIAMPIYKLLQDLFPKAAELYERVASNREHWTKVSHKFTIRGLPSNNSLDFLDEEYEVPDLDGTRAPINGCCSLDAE
Sequence of High affinity cAMP-specific and IBMX-insensitive 3',5'-cyclic phosphodiesterase 8A (O60658 whole entry): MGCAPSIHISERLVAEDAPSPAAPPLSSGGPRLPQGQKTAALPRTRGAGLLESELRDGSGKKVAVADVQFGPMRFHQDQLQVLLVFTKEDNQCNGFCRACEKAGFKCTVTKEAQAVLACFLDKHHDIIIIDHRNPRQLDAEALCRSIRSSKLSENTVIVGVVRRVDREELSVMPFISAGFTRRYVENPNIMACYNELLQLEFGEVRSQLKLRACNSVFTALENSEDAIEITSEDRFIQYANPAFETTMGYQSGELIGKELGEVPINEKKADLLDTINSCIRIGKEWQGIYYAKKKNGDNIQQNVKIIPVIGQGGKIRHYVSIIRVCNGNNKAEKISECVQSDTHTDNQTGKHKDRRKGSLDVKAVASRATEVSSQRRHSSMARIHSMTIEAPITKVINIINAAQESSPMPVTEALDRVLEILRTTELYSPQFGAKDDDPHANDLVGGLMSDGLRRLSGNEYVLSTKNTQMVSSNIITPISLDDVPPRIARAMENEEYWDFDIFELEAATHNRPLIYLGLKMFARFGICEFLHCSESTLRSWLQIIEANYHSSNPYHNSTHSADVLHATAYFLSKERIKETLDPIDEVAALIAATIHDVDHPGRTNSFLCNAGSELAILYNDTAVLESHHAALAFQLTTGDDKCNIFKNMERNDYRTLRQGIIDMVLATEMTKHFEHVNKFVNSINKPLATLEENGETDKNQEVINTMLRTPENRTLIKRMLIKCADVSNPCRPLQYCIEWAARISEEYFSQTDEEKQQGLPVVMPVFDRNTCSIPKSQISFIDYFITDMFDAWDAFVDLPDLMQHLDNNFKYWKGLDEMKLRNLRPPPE

| Structure (SMILES) | IC50 (Acetylcholinesterase) | IC50 [1] | inhibition [2] | inhibition [3] | other results |
| --- | --- | --- | --- | --- | --- |
| COc1cc2c(cc1OCC(C)C)CC(Cc1ccncc1)C2=O (stereo not given) | 64.3 µM | 4.2 µM | 15% | – | – |
| COc1cc2c(cc1OC1CCCC1)C/C(=C\c1cccnc1)C2=O | 11.7 µM | – | 50% | < 10% | – |
| COc1cc2c(cc1OC1CCCC1)CC(Cc1ccncc1)C2=O (stereo not given) | 30.5 µM | 5.3 µM | 27% | – | – |
| COc1cc2c(cc1OC1CCCC1)C(=O)C(CC1CCNCC1)C2 (stereo not given) | – | – | 11% | < 10% | – |
| COc1ccc(CC2Cc3cc(OC)c(OCCN4CCCCC4)cc3C2=O)cc1 (stereo not given) | 0.81 µM | – | – | < 10% | – |
| COc1ccc(C2CNC(=O)C2)cc1OC1CCCC1 (stereo not given) | – | – | – | – | Activity (PC-12 [4]): Active |
| COc1cc2c(cc1OCC1CC1)CC(CC1CCN(Cc3ccccc3)CC1)C2=O (stereo not given) | 0.21 µM | – | – | < 10% | – |
| COc1cc2c(cc1OCC1CC1)C(=O)C(Cc1ccncc1)C2 (stereo not given) | 35.9 µM | 6.3 µM | 25% | – | – |
| COc1cc2c(cc1OC1CCCC1)CC(CC1CCNCC1)C2=O (stereo not given) | – | – | 19% | < 10% | – |
| COc1cc2c(cc1OC1CCCC1)CC(CC1CCN(Cc3ccccc3)CC1)C2=O (stereo not given) | 0.21 µM | – | – | < 10% | – |
| COc1cc2c(cc1OCC(C)C)CC(CC1CCNCC1)C2=O (stereo not given) | – | – | < 10% | < 10% | – |
| COc1cc2c(cc1OC1CCCC1)C(=O)C(Cc1cccnc1)C2 (stereo not given) | – | 23 µM | 26% | 34% | – |
| COc1cc2c(cc1OC1CCCC1)C(=O)/C(=C/c1cccnc1)C2 | 8.4 µM | 4.1 µM | 56% | – | – |
| COc1cc2c(cc1OC1CCCC1)C(=O)/C(=C/c1ccncc1)C2 | 11.4 µM | 3.1 µM | 51% | – | – |
| COc1ccc(CC2Cc3cc(OC)c(OCCN4CCCC4)cc3C2=O)cc1 (stereo not given) | – | – | – | – | inhibition [5]: 20% |
| COc1cc2c(cc1OCCN1CCCCC1)C(=O)C(Cc1cccnc1)C2 (stereo not given) | 0.28 µM | 1.88 µM | – | – | Activity (PC-12 [6]): Active; IC50 [7]: > 50 µM; IC50 [8]: > 50 µM; Activity (BV-2 [9]): Dde; Activity [10]: Non-Toxic; inhibition (Mus musculus [11]): Active; IC50 [12]: > 50 µM; IC50 [13]: > 50 µM; IC50 [14]: > 50 µM; IC50 [15]: > 50 µM; IC50 (Cholinesterase): 36.9 µM; Activity (BV-2 [16]): Non-Toxic; IC50 [17]: > 50 µM; Activity (BV-2 [18]): Active; Activity (Mus musculus [19]): Active; IC50 [20]: > 50 µM; Ratio IC50 [21]: 19 |

| Structure (SMILES) | IC50 (Acetylcholinesterase) | IC50 [1] | inhibition [2] | inhibition [3] | other results |
| --- | --- | --- | --- | --- | --- |
| COc1cc2c(cc1OCC1CC1)CC(CC1CCNCC1)C2=O (stereo not given) | – | – | 25% | < 10% | – |
| COc1cc2c(cc1OCC(C)C)CC(CC1CCN(Cc3ccccc3)CC1)C2=O (stereo not given) | 0.21 µM | – | – | < 10% | – |
| COc1cc2c(cc1OC1CCCC1)C(=O)C(Cc1ccccn1)C2 (stereo not given) | 38.3 µM | 8.7 µM | 11% | – | – |
| COc1cc2c(cc1OCC(C)C)C(=O)C(CC1CCN(Cc3ccccc3)CC1)C2 (stereo not given) | 0.5 µM | – | – | < 10% | – |
| COc1cc2c(cc1OCCN1CCCCC1)C(=O)C(Cc1ccncc1)C2 (stereo not given) | 0.07 µM | 16.4 µM | – | – | – |
| COc1cc2c(cc1OC1CCCC1)C(=O)/C(=C/c1ccccn1)C2 | – | – | 39% | 11% | – |
| COc1cc2c(cc1OC1CCCC1)C(=O)C(CC1CCN(Cc3ccccc3)CC1)C2 (stereo not given) | 0.058 µM | – | – | < 10% | – |
| COc1cc2c(cc1OCC(C)C)C(=O)C(Cc1ccncc1)C2 (stereo not given) | – | – | 14% | 34% | – |
| COc1cc2c(cc1OC)C(=O)C(CC1CCN(Cc3ccccc3)CC1)C2 (stereo not given) [DONEPEZIL] | – | 36 µM | – | – | Activity (Mus musculus [22]): Active; inhibition (Mus musculus [11]): Active; Activity (BV-2 [18]): Active; Activity (Mus musculus [19]): Active; Activity (PC-12 [4]): Active |
| COc1cc2c(cc1OCC(C)C)C(=O)C(CC1CCNCC1)C2 (stereo not given) | – | – | 12% | < 10% | – |
| COc1cc2c(cc1OCC1CC1)C(=O)C(CC1CCNCC1)C2 (stereo not given) | – | – | 21% | < 10% | – |
| COc1cc2c(cc1OCC1CC1)CC(Cc1ccncc1)C2=O (stereo not given) | – | – | 23% | 31% | – |
| COc1cc2c(cc1OCCN1CCCC1)C(=O)C(Cc1ccncc1)C2 (stereo not given) | 1.08 µM | – | – | < 10% | – |
| COc1cc2c(cc1OCC1CC1)C(=O)C(CC1CCN(Cc3ccccc3)CC1)C2 (stereo not given) | 0.045 µM | – | – | < 10% | – |
| COc1cc2c(cc1OC1CCCC1)C(=O)C(Cc1ccncc1)C2 (stereo not given) | 55.9 µM | 3.4 µM | 15% | – | – |
